Data reported in patent US7972611B2, “Fungus-induced inflammation and eosinophil degranulation” (Mayo Foundation for Medical Education and Research, priority 2005, dated 2011).
Read-outs that look alike come from different tables or passages of the source. Starred links: 1 amine or outer side, 2 acyl side, 3 side chain; linkers in the order of their positions; H or OH if unused. Residues, ends and D or L forms follow the SMILES beside them. CO = O=C([*:1])[*:2]

Columns and labels:
eosinophils = type: cell-based, human
Method: FIG. 9. […] Alternaria extract, trypsin, or PMA was pretreated with pepstatin A agarose, control agarose, or APMSF, and added to the PAR-2 peptide substrate (Panel A) or eosinophils (Panel B).
(§1) To monitor eosinophil function in response to extracts from Alternaria, degranulation of human eosinophils was measured by quantitating released eosinophil-derived neurotoxin (EDN) and/or MBP. In brief, freshly isolated eosinophils were suspended in HBSS with 25 mM HEPES and 0.01% gelatin at 5×10^5 cells/mL. Eosinophils and stimuli were incubated in 96-well tissue culture plates for 3 hours at 37° C. and 5% CO^2. Cell-free supernatants were stored at −20° C. A specific RIA quantitated eosinophil degranulation by measuring the concentration of EDN in the supernatants.

human eosinophils = assay: Eosinophil degranulation (EDN release) and activation by fungal extracts and proteins; type: cell-based; settings: for activation of human eosinophils by proteases: through PAR-2
Method: FIG. 5. Effects of fungi on eosinophil degranulation. Eosinophils were incubated with culture extracts of various fungi for 3 hours.
FIG. 21. Effects of Trichoderma xylanase on eosinophil degranulation (Panel A). Effects of Trichoderma xylanase on IL-5 production in mouse airways (Panel B). Panel A: Eosinophils were incubated with various concentrations of Trichoderma xylanase for 3 hours. EDN concentrations in the supernatants were measured by RIA as an indicator of degranulation. Panel B: Naive BALB/c mice were exposed intranasally to various doses of Trichoderma xylanase. After 12 hours, BAL fluids were collected and the concentrations of IL-5 were measured by ELISA. Mean±range, n=2.
FIG. 25. Partial characterization of Alternaria extract. A, Before incubation with eosinophils, aliquots of 100 μg/mL Alternaria and 10 ng/mL IL-5 were heated at 37, 56, or 100° C. for 30 min or were treated at 4° C. for 30 min. Eosinophils were incubated in duplicate with these treated stimuli for 3 hours at 37° C. […] The molecular weight calibration of the column is shown above the elution profile.
The following was performed to determine whether human eosinophils have an innate capacity to respond to environmental fungal organisms. Human eosinophils were incubated with extracts from common environmental airborne fungi.
as §1

CC(C)[C@H](NC(=O)[C@H](CCCNC(=N)N)NC(=O)N[C@@H](Cc1ccccc1)C(=O)O)C(=O)N[C@H](C=O)CCCNC(=N)N [Antipain] ({Phe-CO}-Arg-Val-Arg-aldehyde)
eosinophil degranulation (EDN release) induced by Alternaria extract (eosinophils; 3 hours at 37° C.): did not inhibit

CC(C)C[C@H](NC(=O)[C@@H](O)[C@H](N)Cc1ccccc1)C(=O)O [Bestatin]
eosinophil degranulation (EDN release) induced by Alternaria extract (eosinophils; 3 hours at 37° C.): did not inhibit

CCCCCCCCCCCCCCCCCCNC(=O)OCC(COC(=O)N(Cc1cccc[n+]1CC)C(C)=O)OC (stereo not shown) [CV6209]
eosinophil degranulation (EDN release) induced by Alternaria extract (eosinophils; 3 hours at 37° C.): inhibited

CCN(CC)CCCC(C)Nc1ccnc2cc(Cl)ccc12 (stereo not shown) [Chloroquine]
eosinophil degranulation (EDN release) induced by Alternaria extract (eosinophils; 3 hours at 37° C.): did not inhibit

CC(C)C[C@H](NC(=O)[C@@H](NC(=O)N[C@@H](Cc1ccccc1)C(=O)O)[C@@H]1CCN=C(N)N1)C(=O)N[C@H](C=O)Cc1ccccc1 [Chymostatin]
eosinophil degranulation (EDN release) induced by Alternaria extract (eosinophils; 3 hours at 37° C.): did not inhibit

COc1cc2c(c(OC)c1OC)-c1ccc(OC)c(=O)cc1[C@@H](NC(C)=O)CC2 [Colchitin]
eosinophil degranulation (EDN release) induced by Alternaria extract (eosinophils; 3 hours at 37° C.): did not inhibit

C=C1[C@@H](C)[C@H]2[C@H](Cc3ccccc3)NC(=O)[C@]23OC(=O)/C=C/[C@H](O)CCC[C@@H](C)C/C=C/[C@H]3[C@@H]1O [Cytochalasin B]
eosinophil degranulation (EDN release) induced by Alternaria extract (eosinophils; 3 hours at 37° C.): did not inhibit

CC(C)C[C@H](NC(=O)[C@H]1O[C@@H]1C(=O)O)C(=O)NCCCCN=C(N)N [E64]
eosinophil degranulation (EDN release) induced by Alternaria extract (eosinophils; 3 hours at 37° C.): did not inhibit

O=C(O)CN(CCN(CC(=O)O)CC(=O)O)CC(=O)O [EDTA]
eosinophil degranulation (EDN release) induced by Alternaria extract (eosinophils): inhibited

O=C(O)CN(CCOCCOCCN(CC(=O)O)CC(=O)O)CC(=O)O [EGTA]
eosinophil degranulation (EDN release) induced by Alternaria extract (eosinophils; 3 hours at 37° C.): inhibited

C=CC[C@@H]1/C=C(\C)C[C@H](C)C[C@H](OC)[C@H]2O[C@@](O)(C(=O)C(=O)N3CCCC[C@H]3C(=O)O[C@H](/C(C)=C/[C@@H]3CC[C@@H](O)[C@H](OC)C3)[C@H](C)[C@@H](O)CC1=O)[C@H](C)C[C@@H]2OC [FK 506]
eosinophil degranulation (EDN release) induced by Alternaria extract (eosinophils; 3 hours at 37° C.): did not inhibit

CN(C)CCCn1cc(C2=C(c3c[nH]c4ccccc34)C(=O)NC2=O)c2ccccc21 [GF109203X]
eosinophil degranulation (EDN release) induced by Alternaria extract (eosinophils; 3 hours at 37° C.): did not inhibit

O=c1c(-c2ccc(O)cc2)coc2cc(O)cc(O)c12 [Genistein]
eosinophil degranulation (EDN release) induced by Alternaria extract (eosinophils; 3 hours at 37° C.): did not inhibit

[La] [Lanthunum]
eosinophil degranulation (EDN release) induced by Alternaria extract (eosinophils; 3 hours at 37° C.): inhibited

CC(=O)N[C@@H](CC(C)C)C(=O)N[C@@H](CC(C)C)C(=O)N[C@H](C=O)CCCNC(=N)N [Leupeptin]
eosinophil degranulation (EDN release) induced by Alternaria extract (eosinophils; 3 hours at 37° C.): did not inhibit

COc1cccc(-c2cc(=O)c3ccccc3o2)c1N [PD98059]
eosinophil degranulation (EDN release) induced by Alternaria extract (eosinophils; 3 hours at 37° C.): did not inhibit

Cl.NCCc1ccc(S(=O)(=O)F)cc1 [Pefabloc SC]
eosinophil degranulation (EDN release) induced by Alternaria extract (eosinophils; 3 hours at 37° C.): did not inhibit

CC(C)C[C@H](NP(=O)(O)O[C@@H]1O[C@@H](C)[C@H](O)[C@@H](O)[C@H]1O)C(=O)N[C@@H](Cc1c[nH]c2ccccc12)C(=O)O [Phosphoramidon]
eosinophil degranulation (EDN release) induced by Alternaria extract (eosinophils; 3 hours at 37° C.): did not inhibit

Cn1cc(C2=C(c3cn(CCCSC(=N)N)c4ccccc34)C(=O)NC2=O)c2ccccc21 [Ro-31-8220]
eosinophil degranulation (EDN release) induced by Alternaria extract (eosinophils; 3 hours at 37° C.): did not inhibit

CC(=O)c1c(O)c(C)c(O)c(Cc2c(O)c3c(c(C(=O)/C=C/c4ccccc4)c2O)OC(C)(C)C=C3)c1O [Rottelrin]
eosinophil degranulation (EDN release) induced by Alternaria extract (eosinophils; 3 hours at 37° C.): did not inhibit

C[S+]([O-])c1ccc(-c2nc(-c3ccncc3)c(-c3ccc(F)cc3)[nH]2)cc1 (stereo not shown) [SB203580]
eosinophil degranulation (EDN release) induced by Alternaria extract (eosinophils; 3 hours at 37° C.): did not inhibit

Cc1ccc(S(=O)(=O)N[C@@H](CCCCN)C(=O)CCl)cc1 [TLCK]
eosinophil degranulation (EDN release) induced by Alternaria extract (eosinophils; 3 hours at 37° C.): did not inhibit

NCCCCCCNS(=O)(=O)c1cccc2c(Cl)cccc12 [W-7]
eosinophil degranulation (EDN release) induced by Alternaria extract (eosinophils; 3 hours at 37° C.): did not inhibit

COC[C@H]1OC(=O)c2coc3c2[C@@]1(C)C1=C(C3=O)[C@@H]2CCC(=O)[C@@]2(C)C[C@H]1OC(C)=O [Wortmannin]
eosinophil degranulation (EDN release) induced by Alternaria extract (eosinophils; 3 hours at 37° C.): did not inhibit

Aprotinin
eosinophil degranulation (EDN release) induced by Alternaria extract (eosinophils; 3 hours at 37° C.): did not inhibit

IL-5: cytokine
loss of activity to induce EDN release after treatment (human eosinophils; treatment at 56° C. or lower temperatures): not | activity to induce EDN release after heat treatment (human eosinophils; treatment at 100° C.): abolished

Jasplakinlide
eosinophil degranulation (EDN release) induced by Alternaria extract (eosinophils; 3 hours at 37° C.): inhibited

heparin
eosinophil degranulation (EDN release) induced by Alternaria extract (eosinophils; 3 hours at 37° C.): inhibited

pertussis toxin
Alternaria-induced eosinophil [Ca2+]i response and degranulation, sensitivity to pertussis toxin (eosinophils): sensitive

B1: SEQ ID NO:2: polypeptide of SEQ ID NO:2, Alternaria alternata endoxylanase, recombinantly produced in E. coli (protein, listed as Alternaria brassicicola)
chain: MHFRGSSIYFGIVALSSTSAVLGAVAPYGQCGGNGFQGETECAQGWSCVKSNDWYSQCINGGGNAPAPPAATGVAPAPVIPSAAPVPSMNASEPVAAPVAVAQPAATGGANGSAPDVAGTGANGAKCSLDAAFKSHGKKYIGVATDQGALSKGKNKEIIVANFGQVTPENSMKWDATEGTEGKFTLDGANALVSFATENKKLVRGHTTVWHSQLPTWVSSITDKTKLEEVMVAHIKKLMSTYAGKVYAWDVVNEIFNEDGSFRSSVFYNVLGENFVATAFATAKAADPEAKLYINDYNLDSPSYAKTKAMASNVKKWVAAGVPIDGIGSQSHLSGSWPISDYPAALKLLCESASECAMTELDIKGGAAADYKTAVTACLDVENCVGVTVWGVSDTDSWIGAAATPLLFDGSFQAKESYNGLCSALA
eosinophil degranulation (EDN release) (human eosinophils; eosinophils incubated with stimulus): stimulated eosinophil degranulation

B2: papain: cysteine protease (protein, UniProt P00784 134-345, looked up)
Papain: IPEYVDWRQKGAVTPVKNQGSCGSCWAFSAVVTIEGIIKIRTGNLNEYSEQELLDCDRRSYGCNGGYPWSALQLVAQYGIHYRNTYPYEGVQRYCRSREKGPYAAKTDGVRQVQPYNEGALLYSIANQPVSVVLEAAGKDFQLYRGGIFVGPCGNKVDHAVAAVGYGPNYILIKNSWGTGWGENGYIRIKRGTGNSYGVCGLYTSSFYPVKN
activation of human eosinophils by proteases (human eosinophils): activated

B3: Calpastatin (protein, UniProt P20810 1-708, looked up)
Calpastatin: MNPTETKAIPVSQQMEGPHLPNKKKHKKQAVKTEPEKKSQSTKLSVVHEKKSQEGKPKEHTEPKSLPKQASDTGSNDAHNKKAVSRSAEQQPSEKSTEPKTKPQDMISAGGESVAGITAISGKPGDKKKEKKSLTPAVPVESKPDKPSGKSGMDAALDDLIDTLGGPEETEEENTTYTGPEVSDPMSSTYIEELGKREVTIPPKYRELLAKKEGITGPPADSSKPIGPDDAIDALSSDFTCGSPTAAGKKTEKEESTEVLKAQSAGTVRSAAPPQEKKRKVEKDTMSDQALEALSASLGTRQAEPELDLRSIKEVDEAKAKEEKLEKCGEDDETIPSEYRLKPATDKDGKPLLPEPEEKPKPRSESELIDELSEDFDRSECKEKPSKPTEKTEESKAAAPAPVSEAVCRTSMCSIQSAPPEPATLKGTVPDDAVEALADSLGKKEADPEDGKPVMDKVKEKAKEEDREKLGEKEETIPPDYRLEEVKDKDGKPLLPKESKEQLPPMSEDFLLDALSEDFSGPQNASSLKFEDAKLAAAISEVVSQTPASTTQAGAPPRDTSQSDKDLDDALDKLSDSLGQRQPDPDENKPMEDKVKEKAKAEHRDKLGERDDTIPPEYRHLLDDNGQDKPVKPPTKKSEDSKKPADDQDPIDALSGDLDSCPSTTETSQNTAKDKCKKAASSSKAPKNGGKAKDSAKTTEETSKPKDD
eosinophil degranulation (EDN release) induced by Alternaria extract (eosinophils; 3 hours at 37° C.): did not inhibit

B4: Der f1: natural mite allergen protease (protein, UniProt P16311 99-321, looked up)
Peptidase 1: TSACRINSVNVPSELDLRSLRTVTPIRMQGGCGSCWAFSGVAATESAYLAYRNTSLDLSEQELVDCASQHGCHGDTIPRGIEYIQQNGVVEERSYPYVAREQRCRRPNSQHYGISNYCQIYPPDVKQIREALTQTHTAIAVIIGIKDLRAFQHYDGRTIIQHDNGYQPNYHAVNIVGYGSTQGDDYWIVRNSWDTTWGDSGYGYFQAGNNLMMIEQYPYVVIM
activation of human eosinophils by proteases (human eosinophils): activated
